According to US11285219B2, “Peptide-oligourea hybrid compounds” (UREKA SARL, priority 2019, dated 2022):
Numbered stars: 1 amine (or outer) side, 2 acyl side, 3 side chain; on linkers, the order of the positions; unused ones are H or OH. Bridge positions count the residues as written; N and C are the ends. Peptide text beside a SMILES is read from it. I, II: the chains in the order shown. X4 = C[C@@H](CNC(=O)[*:1])NC(=O)NC[C@H](CCC(=O)O)NC(=O)NC[C@H](Cc1ccc(O)cc1)N[*:2]; X8 = CC(CNC(=O)NC(C)CNC(=O)[*:2])NC(=O)NCC(C)N[*:1]

Legend:
[1] = target: T1, mouse GLP-1 receptor endogenously expressed in βTC6 cells (Mus musculus, UniProt O35659); experiment: cAMP production functional assay (HTRF), agonist activity at GLP-1R; type: cell-based; conditions: for Potency (%), percentage of potency compare to GLP-1-G^2: cAMP production, Table 1
T1 construct: host or cells: βTC6 cells
T1 sequence (O35659 22-463): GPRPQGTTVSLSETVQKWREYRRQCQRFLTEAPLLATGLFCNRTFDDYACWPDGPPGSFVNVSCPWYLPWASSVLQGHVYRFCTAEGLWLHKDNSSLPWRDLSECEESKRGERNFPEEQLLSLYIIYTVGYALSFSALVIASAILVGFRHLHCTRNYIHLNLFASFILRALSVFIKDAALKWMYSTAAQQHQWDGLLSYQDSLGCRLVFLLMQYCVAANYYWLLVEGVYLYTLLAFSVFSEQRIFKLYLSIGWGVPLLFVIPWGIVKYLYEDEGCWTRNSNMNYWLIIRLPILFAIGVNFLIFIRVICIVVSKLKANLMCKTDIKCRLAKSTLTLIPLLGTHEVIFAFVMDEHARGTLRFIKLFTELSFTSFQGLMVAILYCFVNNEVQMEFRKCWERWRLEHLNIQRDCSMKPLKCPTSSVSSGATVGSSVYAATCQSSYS
Method: The agonistic activity of these hybrids were obtained by functional assays using cells expressing the […] and by measuring the receptor-mediated cAMP produced (see supporting information).
In vitro pharmacology (EC50). […] Following incubation, the cells were lysed and the fluorescence acceptor (D2-labeled cAMP) and fluorescence donor (anti-cAMP antibody labeled with europium cryptate) were added.

normal mice (C57BL/6J) = experiment: Blood glucose experiment in healthy mice; type: in vivo, mouse; parameters: key to In vivo activity (indicator): + = active; +++: + + + = more active
Method: In the first study, we evaluated the effect of the analogues on the blood glucose concentration of normal mice (FIG. 4). The fed mice were treated with the analogues and their blood glucose concentration was monitored before and after dosing for 6 h. […] Indeed, a decrease of blood glucose concentration is observed after 30 min and the effect is preserved for 4 h after dosing.
Blood glucose experiment in healthy mice. After the acclimation period (at least 5 days), mice (male C57BL/6J mice (Charles River laboratories) (8 weeks old, 20-25 g)) were randomized into 10 groups (n=3/group) according to their body weight. They were acutely treated via i.v. route at 10 AM (5 μg/mouse). Blood glucose was measured before dosing and at 30 min, 1, 2, 4, 6 h after dosing in fed conditions.

Potency (%), percentage of potency compare to GLP-1-G^2 [1]	Potency (%), percentage of potency (cAMP production) compared to GLP-1-G^2 ([1]; Table 2)	EC50 ([1]; receptor-mediated cAMP production, βTC6 cells, read-out: EC50 (nM), GLP-1R potency)	Compound	In vivo activity (indicator) (normal mice (C57BL/6J); blood glucose, mice, i.v.)	effect on blood glucose concentration (normal mice (C57BL/6J); fed normal mice, 5 μg/mouse i.v., monitored 6 h)
<0.01%	–	–	CC[C@H](C)[C@H](NC(=O)NCC(C)NC(=O)NCC(C)NC(=O)NCC(C)NC(=O)[C@H](C)NC(=O)[C@H](CCC(N)=O)NC(=O)CNC(=O)[C@H](CCC(=O)O)NC(=O)[C@H](CC(C)C)NC(=O)[C@H](Cc1ccc(O)cc1)NC(=O)[C@H](CO)NC(=O)[C@H](CO)NC(=O)[C@@H](NC(=O)[C@H](CC(=O)O)NC(=O)[C@H](CO)NC(=O)[C@@H](NC(=O)[C@H](Cc1ccccc1)NC(=O)[C@@H](NC(=O)CNC(=O)[C@H](CCC(=O)O)NC(=O)CNC(=O)[C@@H](N)Cc1c[nH]cn1)[C@@H](C)O)[C@@H](C)O)C(C)C)C(=O)N[C@@H](C)C(=O)N[C@@H](Cc1c[nH]c2ccccc12)C(=O)N[C@@H](CC(C)C)C(=O)N[C@H](C(=O)N[C@@H](CCCCN)C(=O)NCC(=O)N[C@@H](CCCNC(=N)N)C(=O)NCC(N)=O)C(C)C (stereo partly drawn) [Compound 15, GG2[A^UA^UA^U]^19-22] (I: H-HGEGTFTSDVSSYLEGQA / II: IAWLVKGRG-NH2; linker I:C-II:N via X8)	–	–
135%	135%	0.18 nM	CC[C@H](C)[C@H](NC(=O)[C@H](Cc1ccccc1)NC(=O)[C@H](CCC(=O)O)NC(=O)[C@H](CCCCN)NC(=O)[C@H](C)NC(=O)[C@H](C)NC(=O)NC[C@H](C)NC(=O)NC[C@H](CCC(=O)O)NC(=O)NC[C@H](Cc1ccc(O)cc1)NC(=O)[C@H](Cc1ccc(O)cc1)NC(=O)[C@H](CO)NC(=O)[C@H](CO)NC(=O)[C@@H](NC(=O)[C@H](CC(=O)O)NC(=O)[C@H](CO)NC(=O)[C@@H](NC(=O)[C@H](Cc1ccccc1)NC(=O)[C@@H](NC(=O)CNC(=O)[C@H](CCC(=O)O)NC(=O)CNC(=O)[C@@H](N)Cc1c[nH]cn1)[C@@H](C)O)[C@@H](C)O)C(C)C)C(=O)N[C@@H](C)C(=O)N[C@@H](Cc1c[nH]c2ccccc12)C(=O)N[C@@H](CC(C)C)C(=O)N[C@H](C(=O)N[C@@H](CCCCN)C(=O)NCC(=O)N[C@@H](CCCNC(=N)N)C(=O)NCC(N)=O)C(C)C [Compound 9, GG2[Y^UE^UA^U]^14-17] (I: AAKEFIAWLVKGRG-NH2 / II: H-HGEGTFTSDVSSY; linker I:N-II:C via X4)	+	efficacy but no improvement
